Where “and” joins values, the source holds several entries; their conditions need not be identical. Identical values can stand only once.
How the values were obtained:
[1] = tested on: patients with acne vulgaris and/or acneiform scars; experiment: Clinical study of 5% lipoic acid cream applied to the face, assessed by a dermatologist; type: in vivo, human
Description: The following examples are presented to further illustrate and explain the present invention and should not be taken as limiting in any regard. Unless otherwise indicated, all percentages are by weight. Lipoic acid was supplied by the Henkel Corporation and was placed into a lecithin-based oil-in-water cream at a level of 5% for use by acne patients. This composition was used in the studies unless otherwise indicated.
Eight patients with acne vulgaris and/or acneiform scars were evaluated and photographed at the beginning of the study. The patients were asked to cleanse their faces with Cetaphil™ lotion twice daily, and then to apply the test lipoic acid composition. Clinical evaluations were made every four weeks thereafter. Photographs were retaken at the end of twelve weeks, and five patients continued treatment for up to a year.
The following parameters were reported in clinical assessments by a dermatologist in the follow-up evaluations:
1. visibly apparent changes in erythema
2. visibly apparent changes in pore size

[2] = Skin penetration after topical application; type: in vivo; settings: four hours after application to skin
From the text: While not wishing to be bound to any theory, it is possible that lipoic acid is efficacious in the treatment of acne because it is both fat- and water-soluble and readily disperses in cell membranes and other cellular components. […] Because of its solubility, it is sometimes referred to as a universal antioxidant. It acts as a free radical scavenger and neutralizer, and prevents the cross-linking of cell membranes that is often seen in acne in its post-inflammatory phases. By the same token, LA modulation of free radicals and other oxidative species affects gene expression, including expression of nuclear factor κ-B (NF-κB), nitric oxide synthetase and other mediators at all stages of proinflammation and inflammation. Lipoic acid's alteration of lipid peroxidation, protein cross-linking, growth factor stimulation, and membrane permeability may explain its negative effect on the symptoms of acne.

affected skin areas = experiment: Adverse side effects in clinical studies to date (topical application); type: in vivo, human
From the text: Generally in the practice of the method of the invention, the composition is topically applied to the affected skin areas in a predetermined or as-needed regimen either at intervals by application of a lotion or the like, it generally being the case that gradual improvements is noted with each successive application.

[3] = 5% lipoic acid in lecithin-based oil-in-water cream, topical twice daily, one value per patient (Pt. #1-#8)

With `O=C(O)CCCCC1CCSS1` (centres unmarked) [lipoic acid, 1,2-dithiolane-3-pentanoic acid] as the compound, how does the “improvement in two patients with severe atrophic acne scars” value ([1]; 5% cream, topical twice daily) read?
Its value is 80%.

And the “improvement of atrophic scars, all patients with atrophic scars” value ([1]; 5% cream, topical twice daily)?
Its value is “improved”.

And the “change in pustules, papules, and comedones” value ([1]; 5% cream, within three to four weeks, benefits continued to increase over three to four months)?
Its value is “marked decrease”.

What about the “Erythema % Improvement” value [1, 3] of the same compound?
The value was 80% (3×) and 50% (5×).

And the “Pore Size % Improvement” value [1, 3]?
The value was 50% (3×) and 90% (5×).

What about the “Scar Depth % Improvement” value [1, 3] of the same compound?
The value was 50% (4×) and 80% (2×) and 70% (2×).

What about the “concentration in sebaceous gland tissue” value [2] of the same compound?
Its value is “high concentrations”.

What about the adverse side effects (affected skin areas) of the same compound?
Its adverse side effects is “no adverse side effects”.

From US6365623B1, “Treatment of acne using lipoic acid” (priority 1997, dated 2002)
